Experimental data as given in US20020161194A1, “Cannine androgen receptor” (priority 2000, published 2002).

System: canine androgen receptor
Conditions: DHT 10^−7 M, 24 hr, control A293S cells lacking the canine AR
From the text: Control plates were transfected with all plasmids except canine AR. […] Luciferase activity was normalized for transfection efficiency using β-galactosidase activity.
Control plates were transfected with all the same plasmids except canine AR. […] Cells were harvested 24 hr after compound addition and analyzed for luciferase activity (Luciferase Assay System, Promega, Madison, Wis.) and β-galactosidase activity (Galacto-Star, Tropix, Inc., Bedford, Mass.). Data is expressed as fold induction of luciferase activity as compared to vehicle, following normalization for transfection efficiency using β-galactosidase activity.

C[C@]12CCC(=O)C[C@@H]1CC[C@@H]1[C@@H]2CC[C@]2(C)[C@@H](O)CC[C@@H]12 [DHT, 5α-androstan-17β-ol-3-one]
induction of luciferase activity compared to vehicle: no induction
